Type in all cases: biochemical
Test [1] concerns the target T1, hCA I (Homo sapiens, UniProt P00915). The test can be described thus: Esterase activity inhibition of hCA I (4-nitrophenylacetate, 348 nm). As for the experimental part:
(§1) Erythrocytes were purified from human blood. The blood samples were centrifuged at 1500 rpm for 20 min, and plasma was removed. Later, red cells were washed with isotonic solution (0.9% NaCl), and the erythrocytes were hemolyzed with 1.5 volumes of ice-cold water. Cell membranes were removed by centrifugation at 4 °C, 20000 rpm for 30 min. The pH of hemolysate was adjusted to 8.7 with solid TRIS (tris(hydroxymethyl)aminomethane). […] After extensive washing with a solution of 25.0 mM TRIS-HCl/22.0 mM Na2SO4 (pH 8.7), the hCA I and hCA II isoenzymes were eluted with the solution of 1.0 M NaCl/25.0 mM Na2HPO4 (pH 6.3) and 0.1 M NaCH3COO/0.5 M NaClO4 (pH 5.6), respectively. For quantitative protein determination, the Bradford method was used with bovine serum albumin as standard. Also, the purity control of the isoenzymes was performed with SDS-PAGE after the purification.
(§2) The enzymatic reaction, in a total volume of 3.0 mL, contained 1.4 mL of 0.05 M TRIS–SO4 buffer (pH 7.4), 1.0 mL of 3.0 mM 4-nitrophenylacetate, 0.5 mL H2O, and 0.1 mL enzyme solution. A reference measurement was obtained by preparing the same cuvette without enzyme solution.
(§3) Regression analysis graphs were drawn by plotting the percent enzyme activity versus inhibitor concentration and IC50 values were calculated.
(§4) Enzyme activity was also measured in the presence of the same substrate concentrations but in the absence of any inhibitor to determine the Vmax (Supplementary Figure S3).

Test [2] concerns the target T1, hCA I. The test can be described thus: CO2 hydratase activity inhibition of hCA I (pH-stat method). As for the experimental part: as §1
(§5) The enzyme unit (EU) is the enzyme amount that reduces the non-enzymatic reaction time by 50%. The activity of an enzyme unit was calculated by using the equation ((t0−tc)/tc), where t0 and tc are times for pH change of the non-enzymatic and enzymatic reactions, respectively.
as §3

Test [3] deals with T2, hCA II (Homo sapiens, UniProt P00918). The test can be described thus: CO2 hydratase activity inhibition of hCA II (pH-stat method). How it is done:
as §1, §5, §3

Test [4] concerns the target T2, hCA II. The test can be described thus: Esterase activity inhibition of hCA II (4-nitrophenylacetate, 348 nm). As for the experimental part:
as §1, §2, §3, §4

[5] abbreviates: 4-nitrophenylacetate, 25 °C, TRIS-SO4 pH 7.4, mean ± standard error, three assays.
Where [6] appears, read: determined by esterase activity measurements, Lineweaver-Burk plot, mean ± standard error, three assays.
Where [7] appears, read: CO2 hydratase activity, 0 °C, veronal buffer pH 8.15, mean ± standard error, three assays.

One may read the IC50 as the point on the concentration scale where inhibition reaches its midpoint. A lower IC50 goes with inhibition by little substance. What is called Ki is the dissociation constant of the complex between target and ligand, obtained from inhibition or displacement. A higher Ki goes with a looser hold on the target.

T1 sequence (P00915 whole entry): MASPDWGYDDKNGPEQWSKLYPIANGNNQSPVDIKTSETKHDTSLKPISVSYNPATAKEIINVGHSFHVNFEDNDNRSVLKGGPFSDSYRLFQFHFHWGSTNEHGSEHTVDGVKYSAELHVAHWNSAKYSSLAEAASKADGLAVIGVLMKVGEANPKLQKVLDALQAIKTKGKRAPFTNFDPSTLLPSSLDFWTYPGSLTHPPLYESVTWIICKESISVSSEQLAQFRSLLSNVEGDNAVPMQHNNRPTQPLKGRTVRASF

As for `Nc1nc2ccc(S(N)(=O)=O)cc2s1` [SMABT, 2-amino-6-sulfamoylbenzothiazole], the IC50 against hCA I [1] (setting [5]) was determined as 567 ± 8 nM; against hCA I [2] (setting [7]), 6348 ± 12 nM; against hCA II [3] (setting [7]) it was 3876 ± 14 nM; against hCA II [4] (setting [5]), 322 ± 6 nM. Moreover, the Ki at hCA I [1] (setting [6]) stood at 306 ± 4 nM; at hCA II [4] (setting [6]), 162 ± 10 nM.

For (SMHABT)2[Ni(DPC)2].5H2O [Compound 4], the half-maximal inhibitory concentration (IC50) was 136 ± 3 nM against hCA I [1] (setting [5]), 397 ± 11 nM at hCA I [2] (setting [7]), 212 ± 6 nM against hCA II [3] (setting [7]) and 54 ± 1 nM against hCA II [4] (setting [5]). The Ki on hCA I [1] (setting [6]) was found to be 43 ± 12 nM; at hCA II [4] (setting [6]), 21 ± 4 nM.

Consider `O=C(O)c1cccc(C(=O)O)n1` [Compound H2DPC, 2,6-pyridinedicarboxylic acid, reference compound], for which the “Inhibition of esterase activity of hCA I (in words)” value on hCA I [1] is recorded as “have not inhibited”. The “Esterase IC50 hCA I” value on hCA I [1] (setting [5]) is given as “No inhibition”. Besides, at hCA I [1] (setting [6]), the “Ki hCA I” value is recorded as “No inhibition”. In addition, the “Inhibition of hydratase activity of hCA I (in words)” value on hCA I [2] is “have not inhibited”. Further, the “Hydratase IC50 hCA I” value at hCA I [2] (setting [7]) is “No inhibition”. Also, on hCA II [3], the “Inhibition of hydratase activity of hCA II (in words)” value is “have not inhibited”. Further, on hCA II [3] (setting [7]), the “Hydratase IC50 hCA II” value is listed as “No inhibition”. At hCA II [4], the “Inhibition of esterase activity of hCA II (in words)” value is listed as “have not inhibited”. Besides, the “Esterase IC50 hCA II” value at hCA II [4] (setting [5]) is given as “No inhibition”. Besides, at hCA II [4] (setting [6]), the “Ki hCA II” value is on record as “No inhibition”.

Take (SMHABT)[Fe(DPC)2].4H2O [Compound 2]: the IC50 on hCA I [1] (setting [5]) was determined as 409 ± 21 nM; at hCA I [2] (setting [7]), 2533 ± 23 nM; at hCA II [3] (setting [7]) it was 1010 ± 13 nM; on hCA II [4] (setting [5]) it was 189 ± 5 nM. The Ki was determined as 192 ± 19 nM on hCA I [1] (setting [6]) and 101 ± 5 nM on hCA II [4] (setting [6]).

Take `NC(=S)Nc1ccc(S(N)(=O)=O)cc1` [TBS, 4-thioureidobenzenesulfonamide, reference compound]: the 50% inhibitory concentration (IC50) is 499 ± 10 nM against hCA I [1] (setting [5]), 7846 ± 5 nM against hCA I [2] (setting [7]), 4334 ± 21 nM on hCA II [3] (setting [7]) and 234 ± 6 nM on hCA II [4] (setting [5]). The Ki at hCA I [1] (setting [6]) was 268 ± 7 nM; at hCA II [4] (setting [6]), 114 ± 3 nM.

As for `Nc1nc2ccc(S(N)(=O)=O)cc2s1.O=C(O)c1cccc(C(=O)O)n1` [Compound 1, (SMHABT)^+(HDPC)^−], the IC50 against hCA I [1] (setting [5]) was 258 ± 17 nM; at hCA I [2] (setting [7]) it was 4075 ± 18 nM; at hCA II [3] (setting [7]), 1998 ± 9 nM; against hCA II [4] (setting [5]), 133 ± 15 nM. The Ki at hCA I [1] (setting [6]) is 149 ± 17 nM; at hCA II [4] (setting [6]), 85 ± 19 nM.

With (SMHABT)2[Co(DPC)2].5H2O [Compound 3], the IC50 is 66 ± 4 nM at hCA I [1] (setting [5]), 1601 ± 8 nM against hCA I [2] (setting [7]), 703 ± 14 nM on hCA II [3] (setting [7]) and 41 ± 3 nM against hCA II [4] (setting [5]). Also, the Ki was 28 ± 2 nM on hCA I [1] (setting [6]) and 13 ± 6 nM at hCA II [4] (setting [6]). Further, on hCA II [4] (esterase activity, hCA II versus hCA I), the “hCA II inhibited stronger than hCA I (esterase activity)” value turned out to be 1.5 fold.

For the origin of these results see PMC6009966, “A novel proton transfer salt of 2-amino-6-sulfamoylbenzothiazole and its metal complexes: the evaluation of their inhibition effects on human cytosolic carbonic anhydrases” (Journal of Enzyme Inhibition and Medicinal Chemistry, 2017).
